In patent US4305940A, “Benzamides with local anaesthetic and antiarrhythmic activity, salts, and method of preparation thereof and pharmaceutical compositions therefrom” (B.B.R. Boehringer Biochemia Robin S.p.A., priority 1979, dated 1981):
Where a name gives a salt, the structure may show the parent alone.

What was measured:
corneal reflux = assay: Surface anaesthesia (corneal reflux, conjunctival sac); conditions: for Surface anaesthesia DL50/CE50: analogous to therapeutic index, DL50 i.p.; for Surface anaesthesia CE50: concentration in percent achieving 50% of total responses, pH 7 saline, hydrochloride salts; for Surface anaesthesia activity with respect to lidocaine: lidocaine = 1
Procedure: (§1) The data reported hereinbelow relate in every instance to the hydrochloride salts of the individual compounds.
The surface anaesthesia has been determined in rabbits according to the method of M. R. A. Change and H. Lobstein (J. Pharmacol. Exper. Ther., 82, 203, 1944). The compounds dissolved in physiological saline solution of pH 7 were injected into the conjunctival sac and the corneal reflux was induced with the brush of Frey six times at intervals of five minutes for a total period of 40 minutes.

[1] = system: reflux of contraction of the lower limbs (lumbar plexus); assay: Anaesthesia by conduction (lumbar plexus); format: in vivo, frogs; conditions: for Conduction anaesthesia DL50/t' / Conduction anaesthesia 1/t'max. (c = 1%) with respect to lidocaine: c = 1%; for Conduction anaesthesia DL50/t': DL50 i.p.; for Conduction anaesthesia 1/t'max. (c = 1%) with respect to lidocaine / Conduction anaesthesia DL50/t' relative to lidocaine: lidocaine = 1
Source text: Anaesthesia by conduction has been determined on frogs according to the method of E. Bulbring and I. Wajda (Journal Pharmacol. Exper. Ther., 85, 78, 1945). The compounds dissolved in physiological saline solution are introduced into the cavity obtained by a transversal incision in the abdomen and separating the viscera in order to expose the lumbar plexus. The period of time necessary to eliminate the reflux of contraction of the lower limbs stimulated by immersion of both posterior legs into hydrochloric acid of increasing concentration between 0.05-0.1-0.2 N for a period not in excess of ten seconds, at intervals of one minute is determined. The extent of anaesthesia of conduction has been determined by measuring the period of time required for each compound in three different concentrations, 0.2%-0.5%-1.0% in order to abolish the reflex of contraction with the concentration of hydrochloric acid indicated hereinabove.

in vivo = conditions: rat, in vivo, ip; 5 days; hydrochloride salts; range in parentheses; read-out: DL50 i.p.
Source text: (§2) The behavior of the animals has then been followed for a period of five days. The DL50 has been determined according to the method of I. T. Litchfield and F. Wilcoxon, (J. Pharmacol. Exper. Ther., 96, 99, 1949). The compound numbers in Table II correspond to the numbers in Table I.

Swiss rats = assay: in vivo; conditions: lidocaine = 1
Source text: as §2

[2] = system: response to skin puncture; assay: Anaesthesia by infiltration (subcutaneous, back puncture); format: in vivo, guinea pigs; conditions: for Infiltration anaesthesia DL50/CE50: analogous to therapeutic index, DL50 i.p.; for Infiltration anaesthesia CE50: concentration in percent achieving 50% of total responses, hydrochloride salts; for Infiltration anaesthesia DL50/CE50 relative to lidocaine / Infiltration anaesthesia activity with respect to lidocaine: lidocaine = 1
Procedure: The anaesthesia by infiltration has been determined in guinea pigs according to the method of E. Bulbring and I. Wajda, (Journal of Pharmacol. Exper. Ther. 85, 78, 1945). In each experiment, four doses of the substance in 0.25 cc of physiological saline solution is injected subcutaneously on the back after removal of hair. After five minutes, each animal is punctured six times at intervals of […].
The test was repeated every five minutes for a period of 30 minutes. The extent of anaesthesia by infiltration was measured quantitatively by determining the sum of the instances in which the animal remained immobile during the thirty minute period on 36 possible blinks.

[3] = system: aconitine-induced ventricular arrhythmia; assay: Anti-arrhythmic activity, aconitine infusion; format: in vivo, Wistar rats; conditions: for Aconitine i.v. necessary to induce ventricular arrhythmia: 3 min before aconitine 10 mcg/kg/min
Procedure: as §1
This determination has been made in Wistar rats, anaesthetized with ethylurethane, (1 g/kg i.p.), according to the method of B. Vargaftig and J. L. Coigner (European Journal Pharmacology, 6, 49, 1969). The compounds dissolved in physiological saline solution, are injected intravenously three minutes prior to the infusion of aconitine, (10 mcg/kg/min.). The extent of anti-arrhythmic activity is determined quantitatively by determining the amount of aconitine necessary to induce ventricular arrhythmia.

| SMILES | Surface anaesthesia DL50/CE50 (corneal reflux) | Surface anaesthesia CE50 (corneal reflux) | Surface anaesthesia activity with respect to lidocaine (corneal reflux) | Conduction anaesthesia DL50/t' [1] | Conduction anaesthesia 1/t'max. (c = 1%) with respect to lidocaine [1] | Conduction anaesthesia DL50/t' relative to lidocaine [1] | LD50 at 120 h (in vivo) | DL50 i.p. relative to lidocaine (Swiss rats) | Infiltration anaesthesia DL50/CE50 [2] | Infiltration anaesthesia CE50 [2] | Infiltration anaesthesia DL50/CE50 relative to lidocaine [2] | Infiltration anaesthesia activity with respect to lidocaine [2] | Aconitine i.v. necessary to induce ventricular arrhythmia ([3]; 0.6 mg/kg i.v.) | Aconitine i.v. necessary to induce ventricular arrhythmia ([3]; 1.0 mg/kg i.v.) | Aconitine i.v. necessary to induce ventricular arrhythmia ([3]; 3.0 mg/kg i.v.) | Anti-arrhythmic activity compared with lidocaine ([3]; times more active than lidocaine) | Anti-arrhythmic activity compared with quinidine ([3]; times more active than quinidine) | Aconitine i.v. necessary to induce ventricular arrhythmia ([3]; 10.0 mg/kg i.v.) | Aconitine i.v. necessary to induce ventricular arrhythmia ([3]; 40.0 mg/kg i.v.) |
| --- | --- | --- | --- | --- | --- | --- | --- | --- | --- | --- | --- | --- | --- | --- | --- | --- | --- | --- | --- |
| Cc1cccc(C)c1NC(=O)c1cccc(CN2CCCC2)c1 [Compound 5] | 9 | 24.12% | 0.09 | 225 | 11.1 | 17.31 | 225 mg/kg | 1.58 | 28 | 8.01% | 0.15 | 0.09 |  |  |  |  |  |  |  |
| CCN(CC)Cc1ccccc1C(=O)Nc1c(C)cccc1C [Compound 1, 2,6-Dimethylanilide of 2-diethylaminomethylbenzoic acid] | 34 | 0.50% | 4.60 | 6 | 3.6 | 0.46 | 17.2 mg/kg | 0.12 | 69 | 0.25% | 0.36 | 3.00 | 50 ± 5 µg/kg | 67 ± 8 µg/kg | 69 ± 8 µg/kg | at least twenty times more active than lidocaine | at least ten times more active than quinidine |  |  |
| C=C[C@H]1C[N@@]2CC[C@H]1C[C@@H]2[C@@H](O)c1ccnc2ccc(OC)cc12 [Quinidine sulfate, reference compound] |  |  |  |  |  |  |  |  |  |  |  |  |  |  |  |  |  | 50 ± 3 µg/kg | 88 ± 11 µg/kg |
| Cc1cccc(C)c1NC(=O)c1ccccc1CN1CCCCC1 [Compound 7] | 290 | 0.30% | 7.66 | 87 | 11.1 | 6.69 | 87.1 mg/kg | 0.61 | 414 | 0.21% | 2.19 | 3.57 |  |  |  |  |  |  |  |
| Cc1cccc(C)c1NC(=O)c1ccccc1CN1CCCC1 [Compound 4] | 30 | 1.85% | 1.24 | 55 | 11.1 | 4.23 | 55 mg/kg | 0.39 | 162 | 0.34% | 0.86 | 2.20 |  |  |  |  |  |  |  |
| Cc1cccc(C)c1NC(=O)c1cccc(CN2CCCCC2)c1 [Compound 8] | 73 | 2.82% | 0.82 | 41 | 2.2 | 3.15 | 205 mg/kg | 1.44 | 569 | 0.36% | 3.01 | 2.08 |  |  |  |  |  |  |  |
| Cc1cccc(C)c1NC(=O)c1cccc(CN2CCOCC2)c1 [Compound 11] | 22 | 11.90% | 0.19 | 29 | 1.2 | 2.15 | 260 mg/kg | 1.83 | 273 | 0.95% | 1.44 | 0.79 |  |  |  |  |  |  |  |
